Measured values from patent publication US20260116908A1, “TYLOSIN DERIVATIVE AND PREPARATION METHOD AND APPLICATION THEREOF” (Institute of Feed Research, Chinese Academy of Agricultural …, priority 2023, published 2026).
Converted amounts (≈) assume the structure as drawn.

Key:
Format in all cases: cell-based
[1] = system: Streptococcus agalactiae CVCC3940; assay: MIC by broth microdilution, Streptococcus agalactiae
Procedure: (§1) The antibacterial activity of the tylosin derivative Ia and the antibacterial activity of the tylosin derivative Ib of the present invention were determined by using the broth microdilution method with tylosin as a positive control. A broth culture medium was added into a 96-well plate, a prepared compound solution was diluted in a trace two-fold decreasing concentration, and then was inoculated with an appropriate amount of bacterial solution. After incubation for 24 hours, the minimum inhibitory concentration of the compound was observed. The culture medium used in the experiment was CAMHB broth and CAMHB+5% defibrillated sheep blood broth. The preserved bacteria strain was inoculated into a serum plate medium and cultured at 37° C. for 16-18 hours. An appropriate amount of bacteria after the completion of subculture and saline were placed into a turbidimetric tube and calibrated to the McFarland standard with a McFarland turbidimeter. The bacterial suspension was diluted 10 times with saline to prepare test bacterial solutions of certain concentrations (5×10^5 to 5×10^6 cfu/mL) for later use. Tylosin and the compounds obtained in the examples were dissolved in methanol to the desired concentration of each compound (1.0 mg/mL), stored in sterilized brown vials, stoppered, and sealed for later use. […]

[2] = system: Staphylococcus aureus ATCC 29737; assay: MIC by broth microdilution, Staphylococcus aureus
Procedure: as §1

[3] = system: Escherichia coli ATCC 8099; assay: MIC by broth microdilution, Escherichia coli; conditions: for MIC: Escherichia coli, ATCC8099, final compound (after hydrolysis), 96-well two-fold dilution, 37° C., 24 hours; for antibacterial effect on Escherichia coli before versus after hydrolysis: before vs after hydrolysis
Procedure: (§2) The antibacterial activity of the tylosin derivative Ia and the antibacterial activity of the tylosin derivative Ib of the present invention were determined by using the broth microdilution method with tylosin as a positive control. A broth culture medium was added into a 96-well plate, a prepared compound solution was diluted in a trace two-fold decreasing concentration, and then was inoculated with an appropriate amount of bacterial solution. After incubation for 24 hours, the minimum inhibitory concentration of the compound was observed. The culture medium used in the experiment was CAMHB broth and CAMHB+5% defibrillated sheep blood broth. The preserved bacteria strain was inoculated into a serum plate medium and cultured at 37° C. for 16-18 hours. An appropriate amount of bacteria after the completion of subculture and saline were placed into a turbidimetric tube and calibrated to the McFarland standard with a McFarland turbidimeter. The bacterial suspension was diluted 10 times with saline to prepare test bacterial solutions of certain concentrations (5×10^5 to 5×10^6 cfu/mL) for later use. Tylosin and the compounds obtained in the examples were dissolved in methanol to the desired concentration of each compound (1.0 mg/mL), stored in sterilized brown vials, stoppered, and sealed for later use. The working concentration range against Gram-negative bacteria was 0.25 μg/mL to 128 μg/mL; and the working concentration range against Gram-positive bacteria was […] to 50 μg/mL. The 96-well plate micro double dilution method was used. […] Finally, the prepared bacterial solution (of a concentration of 5×10^5 to 5×10^6 cfu/mL) was added into the first well to the eleventh well, and the twelfth well was not added with the bacterial solution to serve as a blank control. The 96-well plate was placed in a 37° C. incubator, cultured in a static state for 24 hours to observe the bacterial growth in each well. The solution in the well that inhibited bacterial growth was transparent, and the solution in the well that could not inhibit bacterial growth was turbid. The concentration corresponding to the well with a transparent solution was selected to be the minimum inhibitory concentration (MIC) of the sample.

[4] = system: Streptococcus pneumoniae ATCC 49169; assay: MIC by broth microdilution, Streptococcus pneumoniae; conditions: for MIC: Streptococcus pneumoniae, ATCC49169, final compound (after hydrolysis), 96-well two-fold dilution, 37° C., 24 hours; for antibacterial effect on Streptococcus pneumoniae before versus after hydrolysis: before vs after hydrolysis
Procedure: as §2

MIC ([1]; Streptococcus agalactiae, CVCC3940, after hydrolysis, 96-well two-fold dilution, 37° C., 24 hours) [µg/mL]	MIC ([2]; Staphylococcus aureus, ATCC29737, after hydrolysis, 96-well two-fold dilution, 37° C., 24 hours) [µg/mL]	MIC [3] [µg/mL]	MIC [4] [µg/mL]	Structure (SMILES)	antibacterial activity against Streptococcus agalactiae before versus after hydrolysis ([1]; before vs after hydrolysis)	antibacterial activity against Staphylococcus aureus before versus after hydrolysis ([2]; before vs after hydrolysis)	antibacterial effect on Escherichia coli before versus after hydrolysis [3]	antibacterial effect on Streptococcus pneumoniae before versus after hydrolysis [4]	in vitro antibacterial activity against Streptococcus pneumoniae compared with tylosin [4]	in vitro antibacterial activity against Escherichia coli compared with tylosin ([3]; compared with tylosin)
1.56 (≈ 1.88 µM)	0.781 (≈ 0.94 µM)	128 (≈ 154 µM)	0.391 (≈ 0.47 µM)	CC[C@H]1OC(=O)C[C@@H](O)[C@H](C)[C@@H](O[C@@H]2O[C@H](C)[C@@H](O)[C@H](N(C)C)[C@H]2O)[C@@H](CCNCCCO)C[C@@H](C)C(=O)/C=C/C(C)=C/[C@@H]1CO[C@@H]1O[C@H](C)[C@@H](O)[C@@H](OC)[C@H]1OC [Ia, 20-(3-hydroxypropylamino)desmycosin]	stronger before the hydrolysis	stronger after the hydrolysis	comparable	comparable	higher in vitro antibacterial activity	–
–	–	64 (≈ 74.7 µM)	0.098 (≈ 0.114 µM)	CC[C@H]1OC(=O)C[C@@H](O)[C@H](C)[C@@H](O[C@@H]2O[C@H](C)[C@@H](O)[C@H](N(C)C)[C@H]2O)[C@@H](CCN2CCC[C@@H]2CO)C[C@@H](C)C(=O)/C=C/C(C)=C/[C@@H]1CO[C@@H]1O[C@H](C)[C@@H](O)[C@@H](OC)[C@H]1OC [Ib, 20-((R)-2-hydroxymethyltetrahydropyrrolyl)desmycosin]	–	–	comparable	doubled after the hydrolysis	higher in vitro antibacterial activity	higher in vitro antibacterial activity
–	–	128 (≈ 140 µM)	0.781 (≈ 0.853 µM)	CC[C@H]1OC(=O)C[C@@H](O)[C@H](C)[C@@H](O[C@@H]2O[C@H](C)[C@@H](O[C@H]3C[C@@](C)(O)[C@@H](O)[C@H](C)O3)[C@H](N(C)C)[C@H]2O)[C@@H](CC=O)C[C@@H](C)C(=O)/C=C/C(C)=C/[C@@H]1CO[C@@H]1O[C@H](C)[C@@H](O)[C@@H](OC)[C@H]1OC [Tylosin]	–	–	–	–	–	–
